From US4020164A, “Benzomorphan derivatives” (priority 1972, dated 1977)
Entries after “also recorded” stand apart in the source; their conditions may differ. Structures can show the parent of a compound that is named as a salt. Where two headings read alike, the source gives them in different places.

Columns and labels:
phenylquinone [1] = assay: Writhing test, acute (phenylquinone writhing, analgesic activity); type: in vivo; conditions: mice; for ED50, writhing test, acute p.o., 10 min. p.i. / ED50, writhing test, acute p.o., 30 min. p.i. / ED50, writhing test, acute s.c., 30 min. p.i. / ED50, writhing test, acute s.c., 10 min. p.i. / ED50: phenylquinone 2 mg/kg i.p., hydrochloride, acute; for potency in writhing test compared with cyclazocine: vs. cyclazocine; for potency in writhing test compared with morphine: vs. morphine; for potency in writhing test compared with pentazocine: vs. pentazocine
Protocol: (§1) The pharmacological investigations were conducted on mice weighing 20-22 g. or on rats weighing 80-110 g. Unless indicated otherwise, the test substances were administered in the form of the hydrochloride acid addition salt thereof in an isotonic NaCl solution, and the animals were examined 30 minutes after subcutaneous (sc) application. The injection volume was respectively 5 ml./kg. of body weight. 10-40 controls animals were used in each experiment. The test and control solutions were administered in accordance with a randomized injection schedule. Seven logarithmically spaced dosages were employed of each test substance. The effective dose (ED) was calculated by probit analysis (Finney, D. J., "Probit Analysis," Cambridge University Press, 2nd Edition, Cambridge 1957). ED50 figures were rounded.
(§2) In the acute test, the test compounds were administered perorally (p.o.) or subcutaneously (s.c.) to mice. Eight mice were used per dose. Seven minutes prior to the testing, the animals received 2 mg./kg. of phenylquinone intraperitoneally. […] The criterion for protective effect was absence of writhes during the eighth minute after phenylquinone administration.

electroshock = assay: Maximal electroshock test; type: in vivo; conditions: mice; for ED50, Maximal Electroshock Test / ED50: 16 mA/50 c.p.s., 0.2 second, transcorneal, absence of tonic extensor cramp of hind limbs, 30 min; for ED50, Maximal Electroshock Test: s.c.; for ED50: Mus musculus, sc, 0.5 h
Protocol: 10-40 controls animals were used in each experiment. […] ED50 figures were rounded.
In the maximum electroshock test, the test substances were administered to dose groups of 6 mice. Sinusoidal pulses of 16 milliamperes/50 c.p.s. [Hertz] and 0.2 second duration were delivered transcorneally via silver electrodes. The shock intensity used elicits nonlethal tonic-clonic convulsions in control animals (p <0.01, N = 192). The criterion for protective effect was the absence of the tonic extensor cramp of the hind limbs after shock application (modified test according to Swinyard et al., J. Pharmacol. Exp. Ther. 106, 319, 1952).

apomorphine = assay: Apomorphine antagonism test; type: in vivo, mice; conditions: for apomorphine-antagonistic activity compared with cyclazocine and pentazocine: vs. cyclazocine and pentazocine; for apomorphine-antagonistic activity compared with haloperidol: vs. haloperidol; for ED50, Apomorphine Antagonism: mouse, in vivo, 1.56 mg/kg; for ED50: read-out: ED50, Apomorphine Antagonism
Protocol: as §1
The criterion for antagonistic effect was the absence of stereotyped movements within an observation period of one minute.

phenylquinone [2] = conditions: mice; s.c.; 30 min p.i.; 25 hours after last injection of 64-hour pretreatment, total 550 mg/kg
Protocol: as §1, §2
In the subchronic test, the same test was performed 25 hours after the last injection of a 64-hour pretreatment period, with the test compound being administered subcutaneously. During the pretreatment period, the subjects received a total of 550 mg/kg. of the test compound, with the test compound being injected over a period of 22 hours in 4 increasing dosages in salt form, and over an additional 42 hours in 2 identical dosages in free base form in sesame oil.

morphine [3] = tested on: morphine; parameters: species or system mice; conditions: mouse, in vivo; for ED50, Morphine Antagonism-Tail-Flick Test, Mice: 12.5 mg/kg
morphine [4] = assay: animal or person; type: in vivo, rats; conditions: for ED50, Morphine Antagonism-Tail-Flick Test, Rats: 6.25 mg/kg
morphine [5] = assay: Precipitated Withdrawal Jumping Test (morphine antagonism in morphine-dependent mice); type: in vivo
Protocol: as §1
The test compound was given to dose groups of 8 animals. The antagonist-precipitated withdrawal jumping frequencies were recorded during three 5-minute observation intervals uniformly distributed over 30 minutes after administration of the test compound. […] The criterion for a precipitating effect is a mean jumping frequency of >1/minute.

[6] = J. Pharmacol. Exp. Ther. 144, 12, 1964; Clin. Pharmacol. Ther. 11:1, 41, 1970; cited from earlier work
[7] = p.o., 10 min p.i., ED50 rounded
[8] = p.o., 30 min p.i., ED50 rounded
[9] = s.c., 30 min p.i., * = significant difference between acute and subchronic ED50 (p < 0.001)
[10] = s.c., 10 min p.i., ED50 rounded
[11] = morphine-dependent mice, criterion mean jumping frequency >1/minute

CCC12CCN(CC(C)(C)O)C(Cc3ccc(O)cc31)C2C (single isomer, unassigned; (-)) [Compound A, (-)-5-ethyl-2'-hydroxy-2-(2-hydroxy-2-methylpropyl)-9-methyl-6,7-benzomorphan]
ED50, writhing test, acute p.o., 10 min. p.i. (phenylquinone [1]; [7]): 3 mg/kg
ED50, writhing test, acute p.o., 30 min. p.i. (phenylquinone [1]; [8]): 7 mg/kg
ED50, writhing test, acute s.c., 30 min. p.i. (phenylquinone [1]; [9]): 0.2 mg/kg
potency in writhing test compared with cyclazocine (phenylquinone [1]): at least equipotent with cyclazocine
potency in writhing test compared with morphine (phenylquinone [1]): more potent than morphine
potency in writhing test compared with pentazocine (phenylquinone [1]): appreciably more potent than pentazocine
muscle-relaxant and anti-convulsant effect in maximum electroshock test (in words) (electroshock): strong muscle-relaxant and anti-convulsant effect
ED50, Maximal Electroshock Test (electroshock): 8 mg/kg
apomorphine-antagonistic activity compared with cyclazocine and pentazocine (apomorphine; mice): markedly stronger activity than cyclazocine and pentazocine
apomorphine-antagonistic activity compared with haloperidol (apomorphine; mice): only slightly weaker effectiveness than haloperidol
ED50, Apomorphine Antagonism (apomorphine; sc): 0.3 mg/kg

CC1C2Cc3ccc(O)cc3C1(C)CCN2CC(C)(C)O (single isomer, unassigned; (-)) [Compound B, (-)-2'-hydroxy-2-(2-hydroxy-2-methylpropyl)-5,9-dimethyl-6,7-benzomorphan]
ED50, writhing test, acute p.o., 10 min. p.i. (phenylquinone [1]; [7]): 5 mg/kg
ED50, writhing test, acute p.o., 30 min. p.i. (phenylquinone [1]; [8]): 10 mg/kg
ED50, writhing test, acute s.c., 10 min. p.i. (phenylquinone [1]; [10]): 0.05 mg/kg
ED50, writhing test, acute s.c., 30 min. p.i. (phenylquinone [1]; [9]): 0.4 mg/kg
potency in writhing test compared with cyclazocine (phenylquinone [1]): at least equipotent with cyclazocine
potency in writhing test compared with morphine (phenylquinone [1]): more potent than morphine
potency in writhing test compared with pentazocine (phenylquinone [1]): appreciably more potent than pentazocine
ED50, writhing test, subchronic s.c., 30 min. p.i. (phenylquinone [2]): 0.4 mg/kg
morphine-antagonistic activity, tail-flick test (in words), mice (morphine [3]): marked activity
ED50, Morphine Antagonism-Tail-Flick Test, Mice (morphine [3]; sc): 5 mg/kg
morphine-antagonistic activity, tail-flick test (in words), rats (morphine [4]; rat, in vivo): marked activity
ED50, Morphine Antagonism-Tail-Flick Test, Rats (morphine [4]; rat, in vivo, sc): 3 mg/kg
precipitated withdrawal effect (in words) (morphine [5]; morphine-dependent mice): inactivity
sedative and muscle-relaxant effect (explaining inactivity in jumping test) (morphine [5]; morphine-dependent mice): simultaneous sedative and muscle-relaxant effect
ED50, Precipitated Withdrawal Jumping Test (inactive, footnote 1) (morphine [5]; morphine-dependent mice, tested at 0.1 - 3.13 mg/kg): Inactive
muscle-relaxant and anti-convulsant effect in maximum electroshock test (in words) (electroshock): strong muscle-relaxant and anti-convulsant effect
ED50, Maximal Electroshock Test (electroshock): 4 mg/kg
apomorphine-antagonistic activity compared with cyclazocine and pentazocine (apomorphine; mice): markedly stronger activity than cyclazocine and pentazocine
apomorphine-antagonistic activity compared with haloperidol (apomorphine; mice): only slightly weaker effectiveness than haloperidol
ED50, Apomorphine Antagonism (apomorphine; sc): 0.3 mg/kg

CCC12CCN(CC(C)O)C(Cc3ccc(O)cc31)C2C (single isomer, unassigned; (-)) [Compound C, (-)-5-ethyl-2'-hydroxy-2-(2-hydroxypropyl)-9-methyl-6,7-benzomorphan]
morphine-antagonistic activity, tail-flick test (in words), mice (morphine [3]): marked activity
ED50, Morphine Antagonism-Tail-Flick Test, Mice (morphine [3]; sc): 1 mg/kg
morphine-antagonistic activity, tail-flick test (in words), rats (morphine [4]; rat, in vivo): marked activity
ED50, Morphine Antagonism-Tail-Flick Test, Rats (morphine [4]; rat, in vivo, sc): 2 mg/kg
precipitated withdrawal effect (in words) (morphine [5]; morphine-dependent mice): considerable activity
ED50, Precipitated Withdrawal Jumping Test (morphine [5]; [11]): 7 mg/kg

CC(O)CN1CCC2(C)c3cc(O)ccc3CC1C2C (single isomer, unassigned; (-)) [Compound D, (-)-2'-hydroxy-2-(2-hydroxypropyl)-5,9-dimethyl-6,7-benzomorphan]
morphine-antagonistic activity, tail-flick test (in words), mice (morphine [3]): marked activity
ED50, Morphine Antagonism-Tail-Flick Test, Mice (morphine [3]; sc): 1 mg/kg
morphine-antagonistic activity, tail-flick test (in words), rats (morphine [4]; rat, in vivo): marked activity
ED50, Morphine Antagonism-Tail-Flick Test, Rats (morphine [4]; rat, in vivo, sc): 2 mg/kg
precipitated withdrawal effect (in words) (morphine [5]; morphine-dependent mice): considerable activity
ED50, Precipitated Withdrawal Jumping Test (morphine [5]; [11]): 9 mg/kg

CNC1=Nc2ccc(Cl)cc2C(c2ccccc2)=[N+]([O-])C1 [Chlordiazepoxide, reference compound]
ED50 (electroshock): 12 mg/kg

C[C@H]1[C@H]2Cc3ccc(O)cc3[C@]1(C)CCN2CC1CC1 [Cyclazocine, reference compound]
ED50 (phenylquinone [1]; Mus musculus, po, 10 min, p.o., 10 min p.i., ED50 rounded, read-out: ED50, writhing test, acute p.o., 10 min. p.i.): 6 mg/kg
ED50 (phenylquinone [1]; Mus musculus, po, 0.5 h, p.o., 30 min p.i., ED50 rounded, read-out: ED50, writhing test, acute p.o., 30 min. p.i.): 8 mg/kg
ED50 (phenylquinone [1]; Mus musculus, sc, 10 min, s.c., 10 min p.i., ED50 rounded, read-out: ED50, writhing test, acute s.c., 10 min. p.i.): 0.06 mg/kg
ED50 (phenylquinone [1]; Mus musculus, sc, 0.5 h, s.c., 30 min p.i., * = significant difference between acute and subchronic ED50 (p < 0.001), read-out: ED50, writhing test, acute s.c., 30 min. p.i.): 0.09 mg/kg
ED50, Morphine Antagonism-Tail-Flick Test, Mice (morphine [3]; sc): 0.1 mg/kg
ED50 (morphine [4]; Rattus norvegicus, sc, read-out: ED50, Morphine Antagonism-Tail-Flick Test, Rats): 0.2 mg/kg
precipitated withdrawal effect (in words) (morphine [5]; morphine-dependent mice): inactivity
sedative and muscle-relaxant effect (explaining inactivity in jumping test) (morphine [5]; morphine-dependent mice): simultaneous sedative and muscle-relaxant effect
ED50, Precipitated Withdrawal Jumping Test (inactive, footnote 2) (morphine [5]; morphine-dependent mice, tested at 0.55 - 3.13 mg/kg): Inactive
ED50 (electroshock): 2 mg/kg
muscle-relaxant and anti-convulsant effect in maximum electroshock test (in words) (electroshock): strong muscle-relaxant and anti-convulsant effect
ED50 (apomorphine; Mus musculus, sc): 6 mg/kg
properties of cyclazocine from the literature [6]: narcotic partial antagonist of the benzomorphan series with analgesic; also recorded: antidepressant properties

O=C(CCCN1CCC(O)(c2ccc(Cl)cc2)CC1)c1ccc(F)cc1 [Haloperidol, reference compound]
ED50 (apomorphine; Mus musculus, sc): 0.1 mg/kg

CN1CC[C@]23c4c5ccc(O)c4O[C@H]2[C@@H](O)C=C[C@H]3[C@H]1C5 [Morphine, reference compound]
ED50, writhing test, acute p.o., 10 min. p.i. (phenylquinone [1]; [7]): 7 mg/kg
ED50, writhing test, acute p.o., 30 min. p.i. (phenylquinone [1]; [8]): 3 mg/kg
ED50, writhing test, acute s.c., 10 min. p.i. (phenylquinone [1]; [10]): 0.3 mg/kg
ED50, writhing test, acute s.c., 30 min. p.i. (phenylquinone [1]; [9]): 0.5 mg/kg
ED50, writhing test, subchronic s.c., 30 min. p.i. (phenylquinone [2]): 3 mg/kg

C=CCN1CC[C@]23c4c5ccc(O)c4O[C@H]2C(=O)CC[C@@]3(O)[C@H]1C5 [Naloxone, reference compound]
ED50 (morphine [5]; Mus musculus, sc, morphine-dependent mice, criterion mean jumping frequency >1/minute): 0.2 mg/kg
jumping frequency, solvent controls challenged with naloxone (morphine [5]; mice, solvent controls, naloxone 0.39 mg/kg, N = 80): 0.13 ± 0.06 min⁻¹

CN1CCc2cccc3c2[C@H]1Cc1ccc(O)c(O)c1-3 [apomorphine hydrochloride, reference compound]
ED95 (apomorphine; Mus musculus, sc, mice, ED95, s.c., read-out: apomorphine dose corresponding to an ED95 for the production of stereotyped behavior in the head region): 1.56 mg/kg

CN1CC[C@]23c4c5ccc(O)c4O[C@H]2[C@@H](O)C=C[C@H]3[C@H]1C5.O=S(=O)(O)O [morphine sulfate, reference compound]
morphine dose corresponding to the ED80, reaction times exceeding 95% value of controls (morphine [3]; sc): 12.5 mg/kg
morphine dose corresponding to the ED99, reaction times exceeding 95% value of controls (morphine [4]; rat, in vivo): 6.25 mg/kg

O=C1C=CC(=O)C(c2ccccc2)=C1 [phenylquinone, reference compound]
ED95 (phenylquinone [1]; Mus musculus, ip, 10 min, ED95, intraperitoneal, maximum action within 10 minutes p.i., read-out: phenylquinone dosage corresponding to the ED95 for the evocation of writhing): 2 mg/kg
